According to article PMC10870243 (Clinical and Translational Science, 2024):
Like-named read-outs stand apart in the source and are kept apart here.

How the values were obtained:
CYP3A [1] = experiment: In vitro CYP3A time-dependent inhibition; format: in vitro ADME; conditions: 0–300 μM
P‐glycoprotein (Pgp) = P‐glycoprotein (Pgp) (Homo sapiens, UniProt P08183); experiment: In vitro efflux transporter study, P-glycoprotein; format: in vitro ADME
[2] = Phase I DDI study: safety and tolerability; format: in vivo, human; conditions: for overall safety and tolerability: healthy participants, clesacostat 15 mg b.i.d., ervogastat 300 mg b.i.d.
[3] = format: in vivo, human
[4] = molecular target: T1, breast cancer resistance protein (BCRP) (Homo sapiens, UniProt Q9UNQ0); experiment: In vitro efflux transporter study, BCRP; format: in vitro ADME
T1 sequence (Q9UNQ0 1-655): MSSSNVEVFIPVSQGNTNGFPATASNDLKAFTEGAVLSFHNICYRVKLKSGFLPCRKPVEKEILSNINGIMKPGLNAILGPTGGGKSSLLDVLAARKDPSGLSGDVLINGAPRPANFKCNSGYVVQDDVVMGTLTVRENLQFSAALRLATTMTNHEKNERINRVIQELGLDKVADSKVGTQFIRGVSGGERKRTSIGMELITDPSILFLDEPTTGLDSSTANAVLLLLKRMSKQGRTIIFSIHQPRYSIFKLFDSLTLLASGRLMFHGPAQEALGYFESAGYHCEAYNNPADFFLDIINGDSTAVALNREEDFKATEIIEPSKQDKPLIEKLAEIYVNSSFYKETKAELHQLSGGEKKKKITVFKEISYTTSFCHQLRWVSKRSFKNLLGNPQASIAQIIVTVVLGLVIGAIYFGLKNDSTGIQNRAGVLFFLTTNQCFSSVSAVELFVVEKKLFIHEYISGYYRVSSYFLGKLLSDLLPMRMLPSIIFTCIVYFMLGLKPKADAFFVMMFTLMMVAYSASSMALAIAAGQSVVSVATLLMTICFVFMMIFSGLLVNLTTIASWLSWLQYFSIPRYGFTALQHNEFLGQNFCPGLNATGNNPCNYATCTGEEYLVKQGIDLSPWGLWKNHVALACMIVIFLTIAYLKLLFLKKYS

CYP3A [5] = conditions: healthy adults, total daily dose ≤720 mg; cited from earlier work
[6] = format: in vivo, human; conditions: for T max / Tmax: median (range); for PTR (peak-to-trough ratio): geometric mean; for CL/F: geometric mean (%CV); for Tmax: T max
CYP3A [7] = experiment: In vitro CYP3A induction in human hepatocytes; format: in vitro ADME
[8] = same participant, Day 9 (7 days clesacostat alone then 2 days with ervogastat)
[9] = clesacostat 15 mg b.i.d. co-administered with ervogastat 300 mg b.i.d.
[10] = ervogastat 300 mg + clesacostat 15 mg b.i.d., Day 14
[11] = ervogastat 300 mg b.i.d. alone, Day 7

Sequence of P‐glycoprotein (Pgp) (P08183 whole entry): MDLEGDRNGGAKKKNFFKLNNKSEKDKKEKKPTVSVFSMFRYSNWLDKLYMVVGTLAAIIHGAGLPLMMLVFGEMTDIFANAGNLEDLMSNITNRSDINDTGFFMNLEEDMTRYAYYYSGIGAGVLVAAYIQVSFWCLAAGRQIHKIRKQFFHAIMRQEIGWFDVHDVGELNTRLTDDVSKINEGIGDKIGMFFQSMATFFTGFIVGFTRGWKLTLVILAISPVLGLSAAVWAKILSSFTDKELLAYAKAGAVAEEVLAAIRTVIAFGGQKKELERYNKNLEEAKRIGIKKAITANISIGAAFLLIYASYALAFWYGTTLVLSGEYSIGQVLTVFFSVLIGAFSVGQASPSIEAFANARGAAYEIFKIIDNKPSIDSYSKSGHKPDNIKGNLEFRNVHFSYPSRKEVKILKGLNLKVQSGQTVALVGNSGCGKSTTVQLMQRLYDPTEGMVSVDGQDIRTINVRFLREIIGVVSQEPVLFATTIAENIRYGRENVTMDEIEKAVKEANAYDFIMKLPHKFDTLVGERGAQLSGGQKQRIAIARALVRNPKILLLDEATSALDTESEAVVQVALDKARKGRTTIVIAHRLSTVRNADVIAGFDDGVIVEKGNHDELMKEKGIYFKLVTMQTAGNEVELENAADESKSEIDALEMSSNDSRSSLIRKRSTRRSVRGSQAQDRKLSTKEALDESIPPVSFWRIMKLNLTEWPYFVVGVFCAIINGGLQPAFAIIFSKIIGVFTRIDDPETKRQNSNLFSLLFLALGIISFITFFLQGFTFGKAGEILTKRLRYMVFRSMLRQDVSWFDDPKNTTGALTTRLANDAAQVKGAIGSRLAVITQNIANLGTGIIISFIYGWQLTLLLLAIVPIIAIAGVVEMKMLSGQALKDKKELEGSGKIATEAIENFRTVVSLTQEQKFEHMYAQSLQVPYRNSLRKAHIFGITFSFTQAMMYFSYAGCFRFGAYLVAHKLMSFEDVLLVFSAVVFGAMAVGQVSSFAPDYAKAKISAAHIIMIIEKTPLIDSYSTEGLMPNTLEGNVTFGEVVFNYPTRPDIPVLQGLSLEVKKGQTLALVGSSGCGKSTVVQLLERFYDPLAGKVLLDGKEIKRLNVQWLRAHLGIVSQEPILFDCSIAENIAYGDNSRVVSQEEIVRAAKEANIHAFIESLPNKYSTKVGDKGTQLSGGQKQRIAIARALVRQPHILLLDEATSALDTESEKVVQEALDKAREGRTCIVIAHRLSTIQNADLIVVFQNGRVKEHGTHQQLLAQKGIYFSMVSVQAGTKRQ

Compound: COc1cc(C(=O)N2CCC3(CC2)CC(=O)c2c(cnn2C(C)C)C3)cc(-c2ccc(C(=O)O)cc2)n1 [clesacostat]
- composite slope based on observed inactivation rate constant (k obs) (CYP3A [1]; midazolam as probe): 0.452 M⁻¹ s⁻¹
- composite slope based on observed inactivation rate constant (k obs) (CYP3A [1]; testosterone as probe): 0.398 M⁻¹ s⁻¹
- substrate for Pgp (P‐glycoprotein (Pgp)): substrates
- overall safety and tolerability [2]: generally safe and well tolerated
- ALT elevation [2, 8]: 3.8 × ULN
- AST elevation [2, 8]: 2.9 × ULN
- GGT elevation [2, 8]: 3.3 × ULN
- decrease in mean systemic exposure based on AUCtau [3, 9]: 19%
- decrease in mean systemic exposure based on C max [3, 9]: 12%
- AUC ([3]; human, plasma, oral, 15 mg): 12100 ng·h/mL
- Cmax ([3]; human, plasma, oral, 15 mg): 1340 ng/mL
- Tmax ([3]; human, plasma, oral, 15 mg): 4 h
- substrate for BCRP [4]: substrates

Compound: CCOc1cccnc1Oc1cncc(-c2ncc(C(=O)N[C@H]3CCOC3)cn2)c1 [ervogastat]
- inhibition of Pgp (P‐glycoprotein (Pgp)): may inhibit
- substrate for Pgp (P‐glycoprotein (Pgp)): substrates
- overall safety and tolerability [2]: generally safe and well tolerated
- change in 4β-hydroxycholesterol (CYP3A [5]): no changes
- T max ([6]; ervogastat 300 mg + clesacostat 15 mg b.i.d., Day 14, n=9): 2.00 (1.00–2.00) h
- PTR (peak-to-trough ratio) [6, 10]: 150
- CL/F [6, 10]: 31.76 (34) L/h
- T max ([6]; ervogastat 300 mg b.i.d. alone, Day 7, n=9): 2.00 (1.00–4.00) h
- PTR (peak-to-trough ratio) [6, 11]: 94.3
- CL/F [6, 11]: 34.41 (19) L/h
- AUC ([6]; human, plasma, oral, 300 mg): 8720 ng·h/mL
- Cmax ([6]; human, plasma, oral, 300 mg): 2390 ng/mL
- Tmax ([6]; human, plasma, oral, 300 mg, ervogastat 300 mg b.i.d. alone, Day 7, n=9): ~2 h
- Tmax ([6]; human, plasma, oral, ervogastat 300 mg + clesacostat 15 mg b.i.d., Day 14, n=9): ~2 h
- EC50 (CYP3A [7]): 21.4 to 37.2 µM
- inhibition of BCRP [4]: may inhibit
- substrate for BCRP [4]: substrates
